Measured values: ChEMBL document CHEMBL3885861, “Open TG-GATES”

Species: Rattus norvegicus
Experiment: Open TG-GATES - Regimen: Single
Type: toxicity, organism-based, Sprague-Dawley
Set-up: regimen Single, gender Male, age 6 weeks
Details: in vivo, po, 6 mg/kg, route gavage, dose level Low; for APTT / Bas / Eos / Fbg / Hb / Ht / Lym / MCH / MCHC / MCV / Mono / Neu / PT / Plat / RBC / Ret / WBC: tissue Blood; for LIVER: tissue Liver; for A/G / ALP / ALT / AST / BUN / CRE / Ca / Cl / DBIL / GLC / IP / K / LDH / Na / PL / RALB / TBIL / TC / TG / TP / gamma-GTP: tissue Plasma

SMILES: O=[N+]([O-])c1ccc(O)c([N+](=O)[O-])c1 [2,4-DINITROPHENOL]
- TERMINAL_BW (3 h): 204.4 g
- APTT (3 h): 17 s
- Bas (3 h): 0%
- Eos (3 h): 0.8%
- Fbg (3 h): 232 mg/dL
- Hb (3 h): 12.9 g/dL
- Ht (3 h): 38.5%
- Lym (3 h): 74.8%
- MCH (3 h): 21.6 pg
- MCHC (3 h): 33.5%
- MCV (3 h): 64.6 fL
- Mono (3 h): 9.6%
- Neu (3 h): 14.8%
- PT (3 h): 12.2 s
- Plat (3 h): 124.6 x10_4/uL
- RBC (3 h): 595.6 x10_4/ul
- Ret (3 h): 9.1%
- WBC (3 h): 105.2 x10_2/uL
- LIVER (3 h): 9.7 g
- A/G (3 h): 2.4
- ALP (3 h): 1437.4 IU/L
- ALT (3 h): 38 IU/L
- AST (3 h): 69 IU/L
- BUN (3 h): 11 mg/dL
- CRE (3 h): 0.4 mg/dL
- Ca (3 h): 11.2 mg/dL
- Cl (3 h): 103.2 meq/L
- DBIL (3 h): 0.014 mg/dL
- GLC (3 h): 185.2 mg/dL
- IP (3 h): 10.4 mg/dL
- K (3 h): 4.3 meq/L
- LDH (3 h): 110.2 IU/L
- Na (3 h): 138.4 meq/L
- PL (3 h): 139.8 mg/dL
- RALB (3 h): 3.8 g/dL
- TBIL (3 h): 0.046 mg/dL
- TC (3 h): 79 mg/dL
- TG (3 h): 57 mg/dL
- TP (3 h): 5.4 g/dL
- gamma-GTP (3 h): 0 IU/L
- TERMINAL_BW (6 h): 202.3 g
- APTT (6 h): 16.3 s
- Bas (6 h): 0%
- Eos (6 h): 1%
- Fbg (6 h): 252.2 mg/dL
- Hb (6 h): 13 g/dL
- Ht (6 h): 38.9%
- Lym (6 h): 73%
- MCH (6 h): 21.3 pg
- MCHC (6 h): 33.4%
- MCV (6 h): 63.9 fL
- Mono (6 h): 10%
- Neu (6 h): 16.4%
- PT (6 h): 12.1 s
- Plat (6 h): 124.2 x10_4/uL
- RBC (6 h): 608.6 x10_4/ul
- Ret (6 h): 9.3%
- WBC (6 h): 116.8 x10_2/uL
- LIVER (6 h): 9.2 g
- A/G (6 h): 2.4
- ALP (6 h): 1588.6 IU/L
- ALT (6 h): 35.4 IU/L
- AST (6 h): 69.2 IU/L
- BUN (6 h): 10.6 mg/dL
- CRE (6 h): 0.4 mg/dL
- Ca (6 h): 10.9 mg/dL
- Cl (6 h): 105.2 meq/L
- DBIL (6 h): 0.012 mg/dL
- GLC (6 h): 198 mg/dL
- IP (6 h): 9.3 mg/dL
- K (6 h): 4.4 meq/L
- LDH (6 h): 135.6 IU/L
- Na (6 h): 139 meq/L
- PL (6 h): 154 mg/dL
- RALB (6 h): 3.9 g/dL
- TBIL (6 h): 0.05 mg/dL
- TC (6 h): 92.4 mg/dL
- TG (6 h): 61.4 mg/dL
- TP (6 h): 5.6 g/dL
- gamma-GTP (6 h): 0 IU/L
- TERMINAL_BW (9 h): 199.2 g
- APTT (9 h): 15.6 s
- Bas (9 h): 0%
- Eos (9 h): 1%
- Fbg (9 h): 244.6 mg/dL
- Hb (9 h): 12.9 g/dL
- Ht (9 h): 38.5%
- Lym (9 h): 72%
- MCH (9 h): 21.7 pg
- MCHC (9 h): 33.5%
- MCV (9 h): 64.7 fL
- Mono (9 h): 12.8%
- Neu (9 h): 14.4%
- PT (9 h): 11.9 s
- Plat (9 h): 125.6 x10_4/uL
- RBC (9 h): 595 x10_4/ul
- Ret (9 h): 8.8%
- WBC (9 h): 87.8 x10_2/uL
- LIVER (9 h): 8.6 g
- A/G (9 h): 2.5
- ALP (9 h): 1398.6 IU/L
- ALT (9 h): 31.4 IU/L
- AST (9 h): 66.2 IU/L
- BUN (9 h): 11.4 mg/dL
- CRE (9 h): 0.4 mg/dL
- Ca (9 h): 11 mg/dL
- Cl (9 h): 104.4 meq/L
- DBIL (9 h): 0.01 mg/dL
- GLC (9 h): 191.4 mg/dL
- IP (9 h): 10.7 mg/dL
- K (9 h): 4.9 meq/L
- LDH (9 h): 145 IU/L
- Na (9 h): 138.4 meq/L
- PL (9 h): 157.4 mg/dL
- RALB (9 h): 3.9 g/dL
- TBIL (9 h): 0.046 mg/dL
- TC (9 h): 93.2 mg/dL
- TG (9 h): 57.6 mg/dL
- TP (9 h): 5.5 g/dL
- gamma-GTP (9 h): 0.2 IU/L
- TERMINAL_BW (24 h): 220.4 g
- APTT (24 h): 15.9 s
- Bas (24 h): 0%
- Eos (24 h): 1.4%
- Fbg (24 h): 237.4 mg/dL
- Hb (24 h): 12.8 g/dL
- Ht (24 h): 38.4%
- Lym (24 h): 72.8%
- MCH (24 h): 21.6 pg
- MCHC (24 h): 33.4%
- MCV (24 h): 64.8 fL
- Mono (24 h): 10.4%
- Neu (24 h): 15.6%
- PT (24 h): 11.6 s
- Plat (24 h): 131.6 x10_4/uL
- RBC (24 h): 593.2 x10_4/ul
- Ret (24 h): 7.8%
- WBC (24 h): 107.2 x10_2/uL
- LIVER (24 h): 11.3 g
- A/G (24 h): 2.5
- ALP (24 h): 1262 IU/L
- ALT (24 h): 38.8 IU/L
- AST (24 h): 64.8 IU/L
- BUN (24 h): 14.8 mg/dL
- CRE (24 h): 0.4 mg/dL
- Ca (24 h): 11.3 mg/dL
- Cl (24 h): 103.2 meq/L
- DBIL (24 h): 0.012 mg/dL
- GLC (24 h): 193.6 mg/dL
- IP (24 h): 7.3 mg/dL
- K (24 h): 4.6 meq/L
- LDH (24 h): 105 IU/L
- Na (24 h): 139.4 meq/L
- PL (24 h): 159.6 mg/dL
- RALB (24 h): 4 g/dL
- TBIL (24 h): 0.034 mg/dL
- TC (24 h): 90 mg/dL
- TG (24 h): 116 mg/dL
- TP (24 h): 5.6 g/dL
- gamma-GTP (24 h): 0.4 IU/L
